# Experimental data published in ChEMBL document CHEMBL1201862, “PubChem BioAssay data set” (2004).
#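 Protocol summary: plate cells (96-well), add compound at 5 concentrations, incubate 48 h, interpolate endpoints linearly. GI50 = concentration required for 50% inhibition of growth.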 Calls of active or inactive are those of the source. No stated cut-off is given here; in the data, active = GI50 up to about 1.1 µM and inactive = higher.
# Tests used:
# Test in all cases: NCI anticancer screen, dose series, 48 h
# [1] = tested on: A498
# [2] = tested on: HCT-15
# [3] = tested on: HL-60
# [4] = tested on: HT-29
# [5] = tested on: KM12
# [6] = tested on: M19-MEL
# [7] = tested on: NCI-H226
# [8] = tested on: NCI-H460
# [9] = tested on: NCI-H522
# [10] = tested on: OVCAR-8
# [11] = tested on: SF-295
# [12] = tested on: SK-MEL-5
# [13] = tested on: SK-OV-3
# [14] = tested on: SR
# [15] = tested on: TK-10
# [16] = tested on: KM-20L2
# [17] = tested on: RPMI-8226
# [18] = tested on: HOP-18
# [19] = tested on: MDA-MB-231
# [20] = tested on: MDA-N
Compound,GI50 [1],GI50 [2],GI50 [3],GI50 [4],GI50 [5],GI50 [6],GI50 [7],GI50 [8],GI50 [9],GI50 [10],GI50 [11],GI50 [12],GI50 [13],GI50 [14],GI50 [15],GI50 [16],GI50 [17],GI50 [18],GI50 [19],GI50 [20]
CCN(CC)/[N+]([O-])=N/OCC(C)O (stereo not drawn),> 100 µM (inactive),> 100 µM,> 100 µM (inactive),> 100 µM (inactive),> 100 µM (inactive),> 100 µM (inactive),> 100 µM (inactive),> 100 µM (inactive),> 100 µM (inactive),> 100 µM (inactive),> 100 µM (inactive),> 100 µM (inactive),> 100 µM (inactive),> 100 µM (inactive),> 100 µM (inactive),,,,,
CCC1C2C=CC(CC2)N1S(=O)(=O)c1ccc(C)cc1 (stereo not drawn),33.9 µM (inactive),22.8 µM,4.22 µM (inactive),24.4 µM (inactive),24.4 µM (inactive),31.4 µM (inactive),0.283 µM (active),23 µM (inactive),20.8 µM (inactive),> 10 µM (inactive),29.2 µM (inactive),18.4 µM (inactive),26.1 µM (inactive),22.4 µM (inactive),,17.3 µM (inactive),12.9 µM (inactive),,,
COC(=O)/C(=N\NC(=O)c1ccccc1O)C(C#N)c1ccccc1 (stereo not drawn),> 25.9 µM (inactive),17.4 µM,16.3 µM (inactive),> 50 µM (inactive),24.1 µM (inactive),30 µM (inactive),12.7 µM (inactive),18.9 µM (inactive),17.2 µM (inactive),23.7 µM (inactive),22.1 µM (inactive),22 µM (inactive),> 45.2 µM (inactive),,> 46.7 µM (inactive),> 50 µM (inactive),20.2 µM (inactive),,,
O=C(N/C(=C\c1cc(Cl)ccc1Cl)c1nc2ccccc2[nH]1)c1ccccc1,,24 µM,21.2 µM (inactive),16.3 µM (inactive),27.4 µM (inactive),30.5 µM (inactive),,,29.1 µM (inactive),19.2 µM (inactive),24.5 µM (inactive),21.7 µM (inactive),> 100 µM (inactive),24.4 µM (inactive),93.3 µM (inactive),34 µM (inactive),,,,
O=C(O/C(=C(/N=N/c1ccccc1)c1ccccc1)c1ccccc1)c1ccccc1,,> 100 µM,,> 100 µM (inactive),> 100 µM (inactive),,> 100 µM (inactive),> 100 µM (inactive),> 100 µM (inactive),> 100 µM (inactive),> 100 µM (inactive),> 100 µM (inactive),> 100 µM (inactive),> 100 µM (inactive),> 100 µM (inactive),> 100 µM (inactive),> 100 µM (inactive),> 100 µM (inactive),,
CCCN(CCCC(NC(C)=O)C(=O)NCc1ccccc1)C(=O)N(C)N=O (stereo not drawn),> 100 µM (inactive),> 100 µM,,> 100 µM (inactive),> 100 µM (inactive),> 100 µM (inactive),> 100 µM (inactive),> 100 µM (inactive),> 100 µM (inactive),> 100 µM (inactive),> 100 µM (inactive),> 100 µM (inactive),> 100 µM (inactive),,> 100 µM (inactive),> 100 µM (inactive),> 100 µM (inactive),,,
O=C1CC2(CCNCC2)C(=O)N1N1CCOCC1,> 100 µM (inactive),> 100 µM,> 100 µM (inactive),> 100 µM (inactive),> 100 µM (inactive),,> 100 µM (inactive),> 100 µM (inactive),> 100 µM (inactive),> 100 µM (inactive),> 100 µM (inactive),> 100 µM (inactive),> 100 µM (inactive),> 100 µM (inactive),> 100 µM (inactive),,> 100 µM (inactive),,> 100 µM (inactive),> 100 µM (inactive)
C/C(=C/CC[C@](C)(OC1OC(CO)C(O)C(O)C1O)[C@H]1CC[C@]2(C)[C@@H]1CC[C@@H]1[C@@]3(C)CC[C@H](O)C(C)(C)[C@@H]3C[C@H](O)[C@]12C)CO (stereo partly drawn),60 µM (inactive),18.1 µM,16.5 µM (inactive),11.6 µM (inactive),22.7 µM (inactive),,26.8 µM (inactive),16.8 µM (inactive),17.9 µM (inactive),33.3 µM (inactive),14.8 µM (inactive),18.2 µM (inactive),21.9 µM (inactive),22.2 µM (inactive),55.7 µM (inactive),,5.4 µM (inactive),,31.3 µM (inactive),24.2 µM (inactive)
CCN(CC)c1ccc2c(c1)Oc1ccc(N(CC)CC)cc1C21Oc2ccccc2-c2c1c1ccccc1n2CC (stereo not drawn),8.34 µM (inactive),3.82 µM,1.25 µM (inactive),1.22 µM (inactive),,,7.74 µM (inactive),,1.3 µM (inactive),6.18 µM (inactive),2.7 µM (inactive),1.56 µM (inactive),4.07 µM (inactive),4.48 µM (inactive),,0.875 µM (active),0.592 µM (active),0.614 µM (active),,
